Read-outs that look alike come from different tables or passages of the source.
Columns and labels:
[1] = Kinetic solubility in PBS buffer pH 7.4; assay type: physicochemical; details: aqueous buffer, kinetic from dmso stock; PBS buffer pH 7.4, 90 minutes at room temperature, from 10 mM DMSO stock
Method: The kinetic solubility assay investigates a solubility based on the amount of material which remains in solution after a precipitation process. […] Assay is performed using Multiscreen Vacuum Manifold. A buffer of interest (in standard protocol PBS buffer at pH=7.4 is used) is spiked with stock solution and incubated for 90 minutes at room temperature. After that time solution/suspension is filtrated. The concentration of each compound is determined on the base of prepared calibration curve using UV-VIS spectrophotometry method. The assay is made in triplicate.
Buffer of interest: 0.24 g of KH2PO4, 1.44 g of Na2HPO4, 0.2 g of KCl and 8 g NaCl and dissolve in 1 L distilled H2O; adjust pH to appropriate value (pH 7.4). 190 μl of buffer of interest was dispensed into the wells of a 96 well filter plate, followed by 10 μl of compound (10 mM stock solution in DMSO). The plate was shaken gently at room temperature for 90 minutes at 500 rpm using a BioSan, Plate Shaker-Thermostat, PST-60 HL-4. After 90 minutes, the plate was filtered using a vacuum manifold and vacuum pump. 100 μl of each filtrate and 100 μl acetonitrile was transferred to a 96 well UV-visible light transparent plate and the UV-visible absorption spectrum was measured using a Biotek Synergy 2 multiplate reader from 250-500 nm, interval range 10 nm. The amount of test compound was calculated using a calibration curve prepared by serial dilution of compounds in equivalent amounts of DMSO and acetonitrile.

[2] = target: T1, full-length human GCN2 enzyme (Homo sapiens, UniProt Q9P2K8); test: GCN2 enzyme inhibition, LanthaScreen TR-FRET Kinase Activity assay (10 μM and 300 μM ATP); assay type: biochemical; details: mean of replicate assays
T1 construct: purchased Carna Bioscience
Method: Biological and Pharmacokinetic Testing (a) GCN2 Enzyme Inhibition (10 μM and 300 μM Assays) Assay Protocol Overview:
The inhibitory activity of the Example compounds towards GCN2 enzyme was measured according to the description below, using a LanthaScreen TR-FRET (Time Resolved Fluorescence Resonance Energy Transfer) Kinase Activity assay distributed by ThermoFisher Scientific.
The full-length human GCN2 enzyme (UniProt accession number Q9P2K8) was used for all experiments (Carna Bioscience). The TR-FRET pair was composed of GFP-eIF2α and LanthaScreen Terbium-labeled anti-peIF2α (pSer52) Antibody.
Each example compound was dissolved in DMSO (0.15 mM) and dispensed in a 384-well plate by a D300 dispenser (Tecan) to a final concentration range 3000-0.13 nM using the logarithmic dilution mode in 2 replicates. Full inhibition (3000 nM commercial reference inhibitor) and DMSO vehicle control wells were also included on the same plate. All volumes were normalized to the final DMSO concentration of 2% of the reaction volume. Next, 5 μL of H2O was added to each well of the plate.
The enzyme mixture was prepared to obtain the following concentrations: • GCN2—30 nM • unloaded tRNA—0.3 nM • HEPES (pH=7.0)—100 mM • MgCl2—20 mM; MnCl2—10 mM
The mixture was applied by adding 5 μL to each well of the plate. The enzyme and the tested compound were then incubated at room temperature for 20 min while shaking at 450 rpm.
The substrate mixture was prepared to obtain the following concentrations: • GFP-eIF2α—240 nM • ATP—900 μM or 30 μM • HEPES (pH=7.0)—50 mM • MgCl2—10 mM • MnCl2—5 mM.
The mixture was applied by adding 5 μL to each well of the plate. Thus, the final concentrations of the 15 μL reaction mixture were as follows: • GCN2—10 nM • unloaded tRNA—0.1 nM • GFP-eIF2α—80 nM • ATP—300 μM or 10 μM • HEPES (1 M, pH=7.0)—50 mM • MgCl2—10 mM • MnCl2—5 mM.
The reaction was allowed to proceed at room temperature for 30 min while shaking at 450 rpm.
The antibody mixture was prepared to obtain the following concentrations: • Na2EDTA·2H2O—40 mM, in TR-FRET Dilution Buffer (Life technologies) • Tb—anti-peIF2a antibodies—4 nM.
The mixture was applied by adding 15 μL to each well. The plate was then incubated at room temperature for 60 min while shaking at 450 rpm and then read using Tecan Spark reader using specific TR-FRET filters.
The analysis of the GFP/Tb fluorescence results was conducted with GraphPad Prism to determine IC50 for each of the example compounds using 4-parameter model: log(inhibitor) vs. response-variable slope. IC50 and K, values were calculated in the usual way. The assay was carried out between 1 and 15 times. The results in the table below are the mean results from replicate assays for the compound in question, where applicable.

[3] = read-out: GCN2 IC50 (nM) 10 uM ATP, 10 uM ATP
[4] = read-out: GCN2 IC50 (nM) 300 uM ATP, 300 uM ATP
[5] = read-out: GCN2 Ki (nM) 10 uM ATP, 10 uM ATP
[6] = read-out: GCN2 Ki (nM) 300 uM ATP, 300 uM ATP

T1 sequence (Q9P2K8 whole entry): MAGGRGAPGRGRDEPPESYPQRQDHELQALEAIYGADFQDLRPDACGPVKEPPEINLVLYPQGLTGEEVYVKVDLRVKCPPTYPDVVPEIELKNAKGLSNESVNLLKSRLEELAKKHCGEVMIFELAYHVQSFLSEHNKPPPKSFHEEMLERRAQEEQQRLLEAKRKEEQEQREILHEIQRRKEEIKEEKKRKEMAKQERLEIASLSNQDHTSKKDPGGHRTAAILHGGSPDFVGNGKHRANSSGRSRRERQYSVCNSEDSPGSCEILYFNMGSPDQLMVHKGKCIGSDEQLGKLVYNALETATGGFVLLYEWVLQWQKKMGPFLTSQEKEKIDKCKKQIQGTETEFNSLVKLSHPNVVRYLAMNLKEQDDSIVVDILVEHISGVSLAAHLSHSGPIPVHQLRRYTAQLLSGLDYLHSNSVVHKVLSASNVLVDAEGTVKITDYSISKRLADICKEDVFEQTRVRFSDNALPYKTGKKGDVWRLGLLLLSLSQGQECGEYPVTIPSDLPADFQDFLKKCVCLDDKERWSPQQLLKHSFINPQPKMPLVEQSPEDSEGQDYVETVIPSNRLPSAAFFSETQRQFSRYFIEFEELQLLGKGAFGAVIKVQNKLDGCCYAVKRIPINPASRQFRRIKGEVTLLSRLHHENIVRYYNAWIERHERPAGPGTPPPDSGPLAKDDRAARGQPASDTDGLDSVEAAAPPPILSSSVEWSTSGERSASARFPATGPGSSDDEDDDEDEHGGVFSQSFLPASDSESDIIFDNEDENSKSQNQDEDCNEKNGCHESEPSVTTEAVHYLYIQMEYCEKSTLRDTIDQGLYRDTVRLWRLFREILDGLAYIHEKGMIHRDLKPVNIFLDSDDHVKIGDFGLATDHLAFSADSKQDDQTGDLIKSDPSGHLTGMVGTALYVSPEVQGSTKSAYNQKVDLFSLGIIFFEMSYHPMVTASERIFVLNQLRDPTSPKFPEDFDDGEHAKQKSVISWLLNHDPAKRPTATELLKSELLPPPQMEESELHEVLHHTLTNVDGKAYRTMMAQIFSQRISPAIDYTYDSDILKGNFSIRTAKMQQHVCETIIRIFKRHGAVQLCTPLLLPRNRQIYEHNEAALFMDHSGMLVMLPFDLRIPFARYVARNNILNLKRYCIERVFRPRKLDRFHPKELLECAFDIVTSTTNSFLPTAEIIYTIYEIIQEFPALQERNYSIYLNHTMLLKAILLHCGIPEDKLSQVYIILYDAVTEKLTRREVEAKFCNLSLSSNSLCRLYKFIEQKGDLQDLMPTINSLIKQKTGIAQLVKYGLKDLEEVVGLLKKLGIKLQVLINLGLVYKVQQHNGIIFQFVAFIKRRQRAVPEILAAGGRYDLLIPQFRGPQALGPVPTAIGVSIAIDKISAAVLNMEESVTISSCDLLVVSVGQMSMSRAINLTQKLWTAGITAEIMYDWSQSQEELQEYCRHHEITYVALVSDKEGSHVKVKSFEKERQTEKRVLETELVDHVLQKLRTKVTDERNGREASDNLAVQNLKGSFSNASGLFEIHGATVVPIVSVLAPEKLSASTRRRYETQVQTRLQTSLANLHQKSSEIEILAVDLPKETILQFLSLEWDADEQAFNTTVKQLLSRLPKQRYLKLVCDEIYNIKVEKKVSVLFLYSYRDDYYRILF

Row | Structure (SMILES) | solubility kinetic at 90 min [1] | IC50 [2, 3] | IC50 [2, 4] | Ki [2, 5] | Ki [2, 6]
1 | COc1ncc(Cl)cc1S(=O)(=O)Nc1nccc(C#Cc2cncc3c2cnn3C)c1F [Example 20, 5-chloro-N-[3-fluoro-4-(2-{1-methyl-1H-pyrazolo[3,4-c]pyridin-4-yl}ethynyl)pyridin-2-yl]-2-methoxypyridine-3-sulfonamide] | 70.6 µg/mL | 14.5 nM | 324 nM | 4.6 nM | 4.9 nM
2 | COc1ncc(Cl)cc1S(=O)(=O)Nc1nccc(C#Cc2cncc3[nH]ncc23)c1F [Example 21, 5-chloro-N-[3-fluoro-4-(2-{1H-pyrazolo[3,4-c]pyridin-4-yl}ethynyl)pyridin-2-yl]-2-methoxypyridine-3-sulfonamide] | 221 µg/mL |  | 158 nM |  | 2.4 nM
3 | COc1ncc(Cl)cc1S(=O)(=O)Nc1nccc(C#Cc2cncc3nn(C)cc23)c1F [Example 22, 5-chloro-N-[3-fluoro-4-(2-{2-methyl-2H-pyrazolo[3,4-c]pyridin-4-yl}ethynyl)pyridin-2-yl]-2-methoxypyridine-3-sulfonamide] | 229 µg/mL |  | 98.6 nM |  | 1.5 nM
4 | COc1ncc(Cl)cc1S(=O)(=O)Nc1nccc(C#Cc2cncc3cnn(C)c23)c1F [Example 24, 5-chloro-N-[3-fluoro-4-(2-{1-methyl-1H-pyrazolo[4,3-c]pyridin-7-yl}ethynyl)pyridin-2-yl]-2-methoxypyridine-3-sulfonamide] | 80.3 µg/mL |  | 169 nM |  | 2.6 nM
5 | CNc1ncc(C#Cc2ccnc(NS(=O)(=O)c3cc(Cl)cnc3OC)c2F)cn1 [Example 25, 5-chloro-N-(3-fluoro-4-{2-[2-(methylamino)pyrimidin-5-yl]ethynyl}pyridin-2-yl)-2-methoxypyridine-3-sulfonamide] | 208 µg/mL |  | 110 nM |  | 1.7 nM
6 | COc1ncc(Cl)cc1S(=O)(=O)Nc1nccc(C#Cc2cnc3cnccn23)c1F [Example 26, 5-chloro-N-[3-fluoro-4-(2-{imidazo[1,2-a]pyrazin-3-yl}ethynyl)pyridin-2-yl]-2-methoxypyridine-3-sulfonamide] | 241 µg/mL |  | 556 nM |  | 8.5 nM
7 | COc1ncc(Cl)cc1S(=O)(=O)Nc1nccc(C#Cc2cnc3[nH]ncc3n2)c1F [Example 27, 5-chloro-N-[3-fluoro-4-(2-{1H-pyrazolo[3,4-b]pyrazin-5-yl}ethynyl)pyridin-2-yl]-2-methoxypyridine-3-sulfonamide] | 225 µg/mL |  | 225 nM |  | 3.4 nM
8 | COc1ncc(Cl)cc1S(=O)(=O)Nc1nccc(C#Cc2cnc3[nH]c(=O)[nH]c3n2)c1F [Example 28, 5-chloro-N-[3-fluoro-4-(2-{2-oxo-1H,2H,3H-imidazo[4,5-b]pyrazin-5-yl}ethynyl)pyridin-2-yl]-2-methoxypyridine-3-sulfonamide] | 231 µg/mL |  | 174 nM |  | 2.7 nM
9 | COc1ncc(Cl)cc1S(=O)(=O)Nc1nccc(C#Cc2cnc3[nH]cnc3c2)c1F [Example 29, 5-chloro-N-[3-fluoro-4-(2-{3H-imidazo[4,5-b]pyridin-6-yl}ethynyl)pyridin-2-yl]-2-methoxypyridine-3-sulfonamide] | 231 µg/mL |  | 654 nM |  | 10 nM
10 | COc1ncc(Cl)cc1S(=O)(=O)Nc1nccc(C#Cc2cnc3ccnn3c2)c1F [Example 30, 5-chloro-N-[3-fluoro-4-(2-{pyrazolo[1,5-a]pyrimidin-6-yl}ethynyl)pyridin-2-yl]-2-methoxypyridine-3-sulfonamide] | > 245 µg/mL |  | 160 nM |  | 2.4 nM
11 | COc1ncc(Cl)cc1S(=O)(=O)Nc1nccc(C#Cc2cnn3cccnc23)c1F [Example 31, 5-chloro-N-[3-fluoro-4-(2-{pyrazolo[1,5-a]pyrimidin-3-yl}ethynyl)pyridin-2-yl]-2-methoxypyridine-3-sulfonamide] | > 243 µg/mL |  | 98.9 nM |  | 1.5 nM
12 | COc1ncc(Cl)cc1S(=O)(=O)Nc1nccc(C#Cc2cnc3[nH]c(=O)[nH]c3c2)c1F [Example 32, 5-chloro-N-[3-fluoro-4-(2-{2-oxo-1H,2H,3H-imidazo[4,5-b]pyridin-6-yl}ethynyl)pyridin-2-yl]-2-methoxypyridine-3-sulfonamide] | 40.1 µg/mL |  | 48.1 nM |  | 0.7 nM
13 | COc1ncc(Cl)cc1S(=O)(=O)Nc1nccc(C#Cc2cnc3[nH]nc(C)c3c2)c1F [Example 33, 5-chloro-N-[3-fluoro-4-(2-{3-methyl-1H-pyrazolo[3,4-b]pyridin-5-yl}ethynyl)pyridin-2-yl]-2-methoxypyridine-3-sulfonamide] | 245 µg/mL | 4.2 nM | 21.7 nM | 1.3 nM | 0.3 nM
14 | COc1ncc(Cl)cc1S(=O)(=O)Nc1nccc(C#Cc2cnc(N)nc2C)c1F [Example 34, N-{4-[2-(2-amino-4-methylpyrimidin-5-yl)ethynyl]-3-fluoropyridin-2-yl}-5-chloro-2-methoxypyridine-3-sulfonamide] | 238 µg/mL |  | 658 nM |  | 10 nM
15 | COc1ncc(Cl)cc1S(=O)(=O)Nc1nccc(C#Cc2cnc3[nH]c(=O)n(C)c3c2)c1F [Example 36, 5-chloro-N-[3-fluoro-4-(2-{1-methyl-2-oxo-1H,2H,3H-imidazo[4,5-b]pyridin-6-yl}ethynyl)pyridin-2-yl]-2-methoxypyridine-3-sulfonamide] | 240 µg/mL |  | 182 nM |  | 2.8 nM
16 | COc1ncc(Cl)cc1S(=O)(=O)Nc1nccc(C#Cc2cnc3[nH]nc(OC)c3c2)c1F [Example 37, 5-chloro-N-[3-fluoro-4-(2-{3-methoxy-1H-pyrazolo[3,4-b]pyridin-5-yl}ethynyl)pyridin-2-yl]-2-methoxypyridine-3-sulfonamide] | > 244 µg/mL |  | 20.9 nM |  | 0.3 nM
17 | COc1ncc(Cl)cc1S(=O)(=O)Nc1nccc(C#Cc2cnc(N)c3nccnc23)c1F [Example 38, N-[4-(2-{5-aminopyrido[3,4-b]pyrazin-8-yl}ethynyl)-3-fluoropyridin-2-yl]-5-chloro-2-methoxypyridine-3-sulfonamide] | 245 µg/mL |  | 55.3 nM |  | 0.8 nM

From US11945799B2, “4-ethynylpyridine derivatives useful as GCN2 inhibitors” (IP2IPO INNOVATIONS LIMITED, priority 2020, dated 2024)
